Columns and labels:
CT390 [1] = biological target: T1, CT390 (Chlamydia trachomatis serovar D, UniProt O84395); assay: Quantitative reverse assay of pure CT390; format: biochemical; conditions: for Km: reverse assay, apparent Km; for Use as amino donor by CT390: reverse direction
T1 construct: His-Tag (N); made in house; host or cells: E. coli

LL-DAP transaminase [2] = assay: Quantitative forward assay of purified microbial LL-DAP transaminases; format: biochemical
Method: (§1) Enzyme assays were performed as described above in Examples I and II.
(§2) The catalytic properties of sll0480, BF2643, Dhaf—3980, MTH52, and SfumDRAFT0821 were studied in greater detail using purified enzymes to determine their kinetic constants using quantitative forward and reverse assays.

LL-DAP transaminase [3] = assay: Quantitative reverse assay of purified microbial LL-DAP transaminases; format: biochemical; conditions: reverse
Method: as §1, §2

CT390 [4] = biological target: T1, CT390; assay: Quantitative forward assay of pure CT390; format: biochemical; conditions: apparent Km
Method: All enzyme assays were carried out essentially as described in Example I. Incubation temperature was 30° C. Kinetic constants were determined by varying substrate concentrations while keeping the co-substrate level constant at the concentration described below. Kinetic data were analyzed by non-linear regression analysis using GraphPad Prizm Version 4.03.
Quantitative assay of the physiologically forward reaction was carried out sequentially in a pre-reaction to generate THDP from m-DAP followed by an LL-DAP aminotransferase assay. […] The pre-reaction was run to completion, monitored by the increase in absorbance at 340 nm resulting from NADPH formation. The aminotransferase reaction was monitored at 398 nm to measure the formation of thioNADH. […] Subsequently, the aminotransferase assay was initiated by addition of CT390, bringing the total reaction volume to 1 mL.

[5] = biological target: Methanothermobacter thermautotrophicus LL-DAP transaminase MTH52 (Methanothermobacter thermautotrophicus, UniProt O26158); assay: Quantitative forward and reverse assays of purified LL-DAP transaminases (Example III); conditions: reverse assay
Methanothermobacter thermautotrophicus LL-DAP transaminase MTH52, sequence (O26158 whole entry): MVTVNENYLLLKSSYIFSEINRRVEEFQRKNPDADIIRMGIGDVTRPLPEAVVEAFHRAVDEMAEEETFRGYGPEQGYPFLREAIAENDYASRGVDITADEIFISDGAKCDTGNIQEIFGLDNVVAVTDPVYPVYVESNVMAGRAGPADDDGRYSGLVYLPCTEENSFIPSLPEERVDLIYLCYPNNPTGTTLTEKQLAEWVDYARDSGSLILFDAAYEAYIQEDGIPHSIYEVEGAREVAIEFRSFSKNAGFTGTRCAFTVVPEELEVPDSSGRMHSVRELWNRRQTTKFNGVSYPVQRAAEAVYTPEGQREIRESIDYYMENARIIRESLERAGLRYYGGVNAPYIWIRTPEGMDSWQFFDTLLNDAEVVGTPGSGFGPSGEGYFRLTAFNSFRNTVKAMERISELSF
Method: This plasmid was transformed into E. coli BL21-CodonPlus®-RIPL for expression and purification of the recombinant protein.
For protein expression the E. coli strains were grown on LB at 37° C. to an OD600 nm of 0.5 and protein expression was then induced with 1 mM IPTG for 4 hr at 25° C. Cells were lysed by sonication in a solution of 50 mM sodium phosphate and 300 mM NaCl (pH 8.0). Metabolites in the extract were removed by buffer exchange using an Amicon Ultra 30,000 MWCO ultrafilter and sodium phosphate/NaCl buffer, and the concentrated soluble protein sample was used for measurement of enzyme activity as an initial assessment of enzyme function. When the recombinant protein was to be purified a larger cell culture was grown and lysed as described above, but the buffer exchange step was not carried out. […] The pure protein was then concentrated in an Amicon Ultra 30,000 MWCO ultrafilter, replacing the elution buffer with 100 mM HepesKOH, pH 7.6.

[6] = biological target: Arabidopsis thaliana LL-DAP-AT (At4g33680), wild type, recombinant (lacks first 39 amino acids, hexa-His and S-TAG), SEQ ID NO: 7 (Arabidopsis thaliana, UniProt Q93ZN9); assay: Quantitative coupled reverse and forward assays of pure recombinant LL-DAP-AT (Table III); format: biochemical
Arabidopsis thaliana LL-DAP-AT (At4g33680), wild type, recombinant (lacks first 39 amino acids, hexa-His and S-TAG), SEQ ID NO: 7, sequence (Q93ZN9 40-461): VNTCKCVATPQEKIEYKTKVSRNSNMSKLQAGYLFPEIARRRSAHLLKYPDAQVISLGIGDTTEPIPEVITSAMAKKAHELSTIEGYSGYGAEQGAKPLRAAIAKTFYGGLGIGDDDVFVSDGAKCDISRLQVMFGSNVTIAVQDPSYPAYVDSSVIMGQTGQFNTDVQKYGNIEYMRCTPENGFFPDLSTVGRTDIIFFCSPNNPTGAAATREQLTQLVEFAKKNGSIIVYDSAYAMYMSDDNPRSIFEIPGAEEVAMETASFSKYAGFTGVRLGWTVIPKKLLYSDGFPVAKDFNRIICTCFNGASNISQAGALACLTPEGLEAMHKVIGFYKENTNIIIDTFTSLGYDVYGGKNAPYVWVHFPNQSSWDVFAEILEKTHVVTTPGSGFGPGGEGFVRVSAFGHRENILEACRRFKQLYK
Method: (§3) For enzyme assays of crude proteins, extracts were prepared by grinding tissue in liquid nitrogen with 100 mM HEPESKOH (pH 7.6), followed by centrifugation at 10,000 g for 15 min, and then buffer exchange using an Amicon Ultra 30,000 MWCO filter. […] Reactions were incubated at 30° C. and the ΔA (440 nm) measured continuously. […] The reaction was incubated at 30° C., and the decrease in A340 was measured. […] The reaction was run to completion, determined by monitoring the increase in A340. […] The kinetic constants were calculated by nonlinear regression analysis using GraphPad Prizm version 4.03.
For this reason quantitative coupled assays were developed to assess the enzyme activity in both the reverse and forward directions. […] The reaction sequence is shown in Scheme 1.
The overall reaction series is shown in Scheme 2.
Thio-NADH has an absorbance maximum at 398 nm, which can be discerned from NADPH, which has an absorbance maximum at 340 nm. FIG. 4 illustrates such a reaction. […] Two plots are shown using 0.55 and 0.055 mM m-DAP.

[7] = tested on: maize LL-DAP transaminase; assay: Inhibitors of LL-DAP transaminase, ortho aminobenzaldehyde assay; format: biochemical, maize (Zea mays); conditions: substrate LL-DAP 0.5 mM
Method: as §3
(§4) Assays for assessing the ability of certain compounds to inhibit LL-DAP aminotransferase have been performed and the results are shown below in Table V. The reactions were performed as described above.

[8] = biological target: A. thaliana LL-DAP transaminase (Arabidopsis thaliana, UniProt Q93ZN9); assay: Inhibitors of LL-DAP transaminase, m-DAP dehydrogenase coupled assay; format: biochemical; conditions: inhibitor 40 mM, substrate LL-DAP 0.05 mM
A. thaliana LL-DAP transaminase, sequence (Q93ZN9 40-461): as above
Method: as §3, §4

LL-DAP transaminase [9] = biological target: T2, LL-DAP transaminase (Synechocystis sp., UniProt Q55828); assay: Quantitative reverse assay of purified microbial LL-DAP transaminases; format: biochemical; conditions: keto acids (5 mM) substituted for 2-oxoglutarate in reverse and for THDPA in forward reaction
T2 construct: His-Tag; made in house; host or cells: E. coli BL21-CodonPlus-RIPL
T2 sequence (Q55828 whole entry): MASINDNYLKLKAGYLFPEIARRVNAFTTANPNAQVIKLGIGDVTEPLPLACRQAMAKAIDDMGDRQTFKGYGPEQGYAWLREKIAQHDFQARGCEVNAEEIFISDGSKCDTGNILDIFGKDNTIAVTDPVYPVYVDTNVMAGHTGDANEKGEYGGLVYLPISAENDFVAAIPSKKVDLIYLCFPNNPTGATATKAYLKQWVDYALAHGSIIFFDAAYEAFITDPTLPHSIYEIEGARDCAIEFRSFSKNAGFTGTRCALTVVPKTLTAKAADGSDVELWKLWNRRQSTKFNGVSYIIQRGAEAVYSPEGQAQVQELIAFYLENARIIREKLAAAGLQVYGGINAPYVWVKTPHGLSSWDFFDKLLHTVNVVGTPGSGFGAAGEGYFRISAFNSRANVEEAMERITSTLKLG
Method: as §1, §2

Arabidopsis LL-DAP-AT = biological target: T3, Arabidopsis LL-DAP-AT (Arabidopsis thaliana, UniProt Q93ZN9); assay: OAB assay of LL-DAP-AT activity in Arabidopsis leaf extract; format: biochemical; conditions: added at 1,000-fold excess over LL-DAP; data not shown
T3 construct: The protein extract was prepared from Arabidopsis leaves by grinding in liquid nitrogen; from tissue; host or cells: Arabidopsis leaves / axenically grown plants, crude soluble extract
T3 sequence (Q93ZN9 46-461): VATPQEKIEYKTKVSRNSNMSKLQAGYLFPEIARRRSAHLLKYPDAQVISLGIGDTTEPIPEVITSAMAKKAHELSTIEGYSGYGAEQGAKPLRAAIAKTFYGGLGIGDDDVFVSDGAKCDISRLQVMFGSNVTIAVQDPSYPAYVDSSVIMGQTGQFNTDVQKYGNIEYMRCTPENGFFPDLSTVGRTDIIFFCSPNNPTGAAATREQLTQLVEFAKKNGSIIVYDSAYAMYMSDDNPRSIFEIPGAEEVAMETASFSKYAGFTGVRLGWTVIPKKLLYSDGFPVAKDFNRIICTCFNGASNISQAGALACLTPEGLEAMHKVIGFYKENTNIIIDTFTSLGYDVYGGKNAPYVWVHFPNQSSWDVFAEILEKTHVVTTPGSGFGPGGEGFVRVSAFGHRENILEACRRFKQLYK
Method: FIGS. 2A and 2B. LL-DAP-AT activity in Arabidopsis. […] The reaction was incubated at 30° C. The protein extract was prepared from Arabidopsis leaves by grinding in liquid nitrogen with 100 mM HEPESKOH (pH 7.6), centrifugation at 10,000 g for 15 min, and buffer exchange using an Amicon Ultra 30,000 MWCO filter.
as §3
The rate of the reaction was directly proportional to the amount of protein extract added (FIG. 2B). […] If the extract was heated in a boiling water bath for 5 min, the activity was completely destroyed. […] Moreover, since the source material was axenically grown, the activity must have been derived from the Arabidopsis rather than a contaminating microorganism.

AGD2 protein (At4g33680) = AGD2 protein (At4g33680) (Arabidopsis thaliana, UniProt Q93ZN9); conditions: transamination of Lys, Song et al. (2004); cited from earlier work
AGD2 protein (At4g33680), sequence (Q93ZN9 46-461): as above

T1 sequence (O84395 whole entry): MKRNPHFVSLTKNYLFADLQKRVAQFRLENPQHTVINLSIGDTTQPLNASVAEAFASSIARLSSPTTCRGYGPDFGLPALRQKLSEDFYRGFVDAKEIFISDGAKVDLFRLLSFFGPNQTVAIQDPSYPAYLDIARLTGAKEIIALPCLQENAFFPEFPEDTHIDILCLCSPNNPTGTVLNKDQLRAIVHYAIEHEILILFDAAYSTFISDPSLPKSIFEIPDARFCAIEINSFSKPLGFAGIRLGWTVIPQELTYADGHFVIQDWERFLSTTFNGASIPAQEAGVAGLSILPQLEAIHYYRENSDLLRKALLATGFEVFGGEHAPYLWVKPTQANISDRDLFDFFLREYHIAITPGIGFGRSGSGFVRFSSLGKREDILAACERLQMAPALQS

O=C(O)CCC(=O)C(=O)O [2-OG, 2-oxoglutarate, reference compound]
Km (CT390 [1]): 650 µM

Mth52: LL-DAP transaminase from M. thermoautotrophicum
Vmax F (LL-DAP transaminase [2]): 0.6 µmol/min/mg | Km (LL-DAP transaminase [3]; read-out: Km 2-OG, substrate 2-OG): 800 µM | Vmax R (LL-DAP transaminase [3]): 4.7 µmol/min/mg

N[C@@H](CCC(=O)O)C(=O)O [Glu, glutamate, reference compound]
Km (CT390 [4]): 1000 µM

O=C(O)CCC(=O)C(=O)O [2-OG, 2-oxoglutarate]
Km [5]: 800 µM

N[C@@H](CCC[C@H](N)C(=O)O)C(=O)O [LL-DAP, LL-2,6-diaminopimelate]
Km (CT390 [1]): 20 µM | Km for LL-DAP lower than the value for Lys ([6]; compared with Km of 58.8 mM for Lys of Song et al. (2004)): 830 fold | Kcat ([6]; reverse assay, pH 7.5, 30° C.): 17.6 s⁻¹

N[C@@H](CCSC[C@H](N)C(=O)O)C(=O)O [cystathionine]
Use as amino donor by CT390 (CT390 [1]): unable to use

NC(CCCCC(=O)O)C(=O)O (racemic) [L, D-α-aminopimelate]
Inhibition % ([7]; inhibitor 5 mM): 50+ % | Inhibition % ([7]; inhibitor 10 mM): 83+ %

NC(CCC(O)C(N)C(=O)O)C(=O)O (racemic) [Threo-β-hydroxy DAP (racemic), Threo-β-hydroxy DAP]
inhibition at 40000 µM [8]: 68%

O=C(O)C1=N[C@H](C(=O)O)CCC1 [THDPA, L-2,3,4,5-tetrahydrodipicolinate]
Km (CT390 [4]): 200 µM | Kcat ([6]; forward assay, pH 7.5): 0.3 s⁻¹

sII0480: LL-DAP transaminase from Synechocystis sp.
Vmax F (LL-DAP transaminase [2]): 0.25 µmol/min/mg | Vmax R (LL-DAP transaminase [3]): 3.3 µmol/min/mg | Keto acid specificity (LL-DAP transaminase [9]): active only with 2-oxoglutarate or THDPA

NC(CCCC(N)C(=O)O)C(=O)O (centres unmarked) [m-DAP, m-2,6-diaminopimelate]
Inhibition of the use of LL-DAP (LL-DAP-AT activity) (Arabidopsis LL-DAP-AT): did not inhibit | Use as amino donor by CT390 (CT390 [1]): able to use

NCCCC[C@H](N)C(=O)O [Lys, lysine]
Inhibition of the use of LL-DAP (LL-DAP-AT activity) (Arabidopsis LL-DAP-AT): did not inhibit | Use as amino donor by CT390 (CT390 [1]): unable to use | Km (AGD2 protein (At4g33680)): 58800 µM

— US20090158455A1, “COMPOSITIONS AND METHODS FOR MODULATING LYSINE PRODUCTION” (priority 2005, published 2009)
